Here are results for four compounds from patent publication US20260199204A1, “ANTIMICROBIAL COMBINATIONS” (Clariant International Ltd, priority 2022, published 2026).

Type in all cases: cell-based
Test [1] has as its system Aspergillus brasiliensis (A.b.). The test can be described thus: Challenge test (European Pharmacopoeia 10th Edition, 5.1.3) in O/W-cream gel. The arrangement: key: An A-criteria is related to an excellent protection of a formulation; B-criteria is needed to show sufficient protection but additional risk eliminating measures related to packaging and raw material quality need to be applied; With an F-criteria for any of the organism tested the whole challenge test is failed and the preservation/protection of the formulation is not sufficient. The following applies: pH 7. The source says:
(§1) Following examples show challenge test results that were done according to EUROPEAN PHARMACOPOEIA 10TH EDITION. Chapter 5.1.3. As representative microorganisms the following test germs were used: Pseudomonas aeruginosa (gram-negative organism, short “P.a.”), Staphylococcus aureus (gram-positive organism, short “S.a.”), Escherichia coli (gram negative organism, short “E.c.”), Candida albicans (yeast, short “C.a.”) and Aspergillus brasiliensis (mold, short “A.b.”). The A criteria express the recommended efficacy to be achieved. In justified cases where the A criteria cannot be attained, for example for reasons of an increased risk of adverse reactions, the B criteria must be satisfied. An A-criteria is related to an excellent protection of a formulation, B-criteria is needed to show sufficient protection but additional risk eliminating measures related to packaging and raw material quality need to be applied. With an F-criteria for any of the organism tested the whole challenge test is failed and the preservation/protection of the formulation is not sufficient. As a reference an unpreserved sample of the respective formulation was tested as well. As a test system a difficult to preserve formulation was used: Leave-on: O/W-Cream Gel [table]

In the next test the test system is Candida albicans (C.a.). The test is described as above. The arrangement: key: An A-criteria is related to an excellent protection of a formulation; B-criteria is needed to show sufficient protection but additional risk eliminating measures related to packaging and raw material quality need to be applied; With an F-criteria for any of the organism tested the whole challenge test is failed and the preservation/protection of the formulation is not sufficient. Particulars: pH 7.
Source text: as §1

In the next test the test system is Escherichia coli (E.c.). Described as above. Also on record: key: An A-criteria is related to an excellent protection of a formulation; B-criteria is needed to show sufficient protection but additional risk eliminating measures related to packaging and raw material quality need to be applied; With an F-criteria for any of the organism tested the whole challenge test is failed and the preservation/protection of the formulation is not sufficient.
Source text: as §1

Test [2] relates to Pseudomonas aeruginosa (P.a.). The test is described as above. Also on record: key: An A-criteria is related to an excellent protection of a formulation; B-criteria is needed to show sufficient protection but additional risk eliminating measures related to packaging and raw material quality need to be applied; With an F-criteria for any of the organism tested the whole challenge test is failed and the preservation/protection of the formulation is not sufficient. The following applies: pH 7.
Source text: as §1

Test [3] concerns Staphylococcus aureus (S.a.). The description is as above. Particulars: pH 7. The arrangement: key: An A-criteria is related to an excellent protection of a formulation; B-criteria is needed to show sufficient protection but additional risk eliminating measures related to packaging and raw material quality need to be applied; With an F-criteria for any of the organism tested the whole challenge test is failed and the preservation/protection of the formulation is not sufficient.
Source text: as §1

The test system of test [4] is all test organisms (P.a., S.a., E.c., C.a., A.b.). Kind of test: Challenge test in O/W-cream gel, overall result. Also on record: key to Challenge test criteria for all test organisms: An A-criteria is related to an excellent protection of a formulation; B-criteria is needed to show sufficient protection but additional risk eliminating measures related to packaging and raw material quality need to be applied; With an F-criteria for any of the organism tested the whole challenge test is failed and the preservation/protection of the formulation is not sufficient. The following applies: pH 7.
Source text: as §1

In test [5] the test system is Klebsiella pneumoniae DSM 786. Kind of test: MIC agar dilution test, bacteria. Particulars: Klebsiella pneumoniae (B) DSM 786, Caso-Agar, pH 7. As to the method:
(§2) The antimicrobial properties of Velsan Flex, 4-Hydroxyacetophenone and a combination of both against bacteria, yeast and mold were investigated: For testing the inhibition of bacteria, Velsan Flex, 4-Hydroxyacetophenone or a combination of both was diluted in butylpolyglycol and added in different concentrations to liquid Caso-Agar at 50° C. and was buffered to pH 7 (+/−0.2). For testing the inhibition of yeast and mold, Velsan Flex, 4-Hydroxyacetophenone or a combination of both was diluted in butylpolyglycol and added in different concentrations to liquid Sabouraud-4% Dextrose-Agar at 50° C. and was buffered to pH 5.6 (+/−0.2). Each of the solutions was poured into a petri-dish and inoculated with the same amount of bacteria, yeast or mold respectively. The minimum inhibitory concentration (MIC) is the lowest concentration of the respective composition that inhibits the growth of the respective microorganism where the next lowest dilution fails to inhibit the growth of said microorganism.
(§3) In a similar experiment as described above the antimicrobial properties of Velsan SC, 4-Hydroxyacetophenone and a combination of both against bacteria, yeast and mold were investigated.

Test [6] concerns Staphylococcus aureus DSM 799. The test can be described thus: MIC agar dilution test, bacteria. The following applies: Staphylococcus aureus (B) DSM 799, Caso-Agar, pH 7. As to the method:
as §2, §3

In test [7] the test system is Burkholderia cepacia DSM 7288. The test can be described thus: MIC agar dilution test, bacteria. Particulars: Burkholderia cepacia (B) DSM 7288, Caso-Agar, pH 7.
Test [8] concerns Aspergillus brasiliensis DSM 1988. The test can be described thus: MIC agar dilution test, mold. The following applies: Aspergillus brasiliensis (M) DSM 1988, Sabouraud-4% Dextrose-Agar, pH 5.6. As to the method: as §2, §3
Test [9] relates to Aspergillus terreus IMI 45543. The test can be described thus: MIC agar dilution test, mold. Particulars: Aspergillus terreus (M) IMI 45543, Sabouraud-4% Dextrose-Agar, pH 5.6. The method, then: as §2, §3
Test [10] relates to Fusarium solani IMI 322444. Kind of test: MIC agar dilution test, mold. Particulars: Fusarium solani (M) IMI 322444, Sabouraud-4% Dextrose-Agar, pH 5.6. The method, then:
as §2, §3

Test [11] concerns Penicillium minioluteum/Penicillium purpurogenum ATCC 52427. The test can be described thus: MIC agar dilution test, mold. Particulars: Penicillium minioluteum/Penicillium purpurogenum (M) ATCC 52427, Sabouraud-4% Dextrose-Agar, pH 5.6. The method, then: as §2, §3
Test [12] concerns Candida albicans DSM 1386. Kind of test: MIC agar dilution test, yeast. Particulars: Candida albicans (Y) DSM 1386, Sabouraud-4% Dextrose-Agar, pH 5.6. The method, then: as §2, §3
The test system of test [13] is Saccharomyces cerevisiae DSM 70449. Kind of test: MIC agar dilution test, yeast. Particulars: Saccharomyces cerevisiae (Y) DSM 70449, Sabouraud-4% Dextrose-Agar, pH 5.6. The method, then:
as §2, §3

Test [14] concerns Candida parapsilosis DSM 5784. The test can be described thus: MIC agar dilution test, yeast. The following applies: Lodderomyces parapsilosis, DSM5784; Candida parapsilosis (Y) DSM 5784; Sabouraud-4% Dextrose-Agar, pH 5.6. The method, then:
as §2, with “microorganism. The experiments were carried out in scientifically fair conditions so that a proper comparison could be made and conclusions drawn.” for “microorganism.”

≈ marks a conversion by molar mass, not a printed value. Read-outs that look alike come from different tables or passages of the source.

For the compound `CC(=O)c1ccc(O)cc1` [4-Hydroxyacetophenone], the “Challenge test result A.b.” value in test [1] (concentration 0.25%) is on record as “F”; in [1] (concentration 0.5%), “A”. Also, the “Challenge test result C.a.” value was “F” in the test with Candida albicans (C.a.) (concentration 0.25%) and “A” with Candida albicans (C.a.) (concentration 0.5%). The “Challenge test result E.c.” value in the test on Escherichia coli (E.c.) (concentration 0.25%, pH 7) is reported as “F”; with Escherichia coli (E.c.) (concentration 0.5%, pH 7), “F”; in the test on Escherichia coli (E.c.) (concentration 0.5%, pH 7, listed as Hydroxyacetophenone), “fails”. In addition, the “Challenge test result P.a.” value is given as “F” in test [2] (concentration 0.25%) and “A” in [2] (concentration 0.5%). Moreover, the “Challenge test result S.a.” value in test [3] (concentration 0.25%) is listed as “F”; in test [3] (concentration 0.5%), “B”. The “Challenge test criteria for all test organisms” value in test [4] (0.25% as single preservative (entry 5)) was “F”. In test [4] (use level 0.5%, alone (entry 6)), the “Ability to preserve the formulation” value is listed as “not sufficient to preserve the formulation”.

Take `CC(=O)c1ccc(O)cc1` [10% Hydroxyacetophenone solution, 4-Hydroxyacetophenone]: the MIC in [5] (DSM786, read-out: MIC) was 8000 µg/mL; in test [6] (DSM799, read-out: MIC), over 10000 µg/mL; in [7] (DSM7288, read-out: MIC), 4000 µg/mL (≈ 29.4 mM); in test [8] (DSM1988, read-out: MIC), 8000 µg/mL; in [9] (IMI45543, read-out: MIC), 6000 µg/mL; in [10] (IMI322444, read-out: MIC) it was 3000 µg/mL. Moreover, the MIC in test [11] (Talaromyces minioluteus, ATCC52427, read-out: MIC) is 6000 µg/mL; in [12] (DSM1386, read-out: MIC), 10000 µg/mL; in test [13] (DSM70449, read-out: MIC), 8000 µg/mL; in test [14] it was over 10000 µg/mL.

“Sorbitan caprylate [90% Velsan SC solution]”: the MIC came to 2000 ppm in [5]; 750 ppm in test [6]; 6000 ppm in [7]; 4000 ppm in test [8]; 1500 ppm in test [9]; 1500 ppm in test [10]. For the same compound, the results for the MIC in test [11], in test [12] and in [13] were 1500 ppm, 1500 ppm and 3000 ppm, respectively.

With Sorbitan caprylate [Velsan SC], the “Challenge test result A.b.” value in test [1] (concentration 0.5%) is listed as “B”. In addition, in the test on Candida albicans (C.a.) (concentration 0.5%), the “Challenge test result C.a.” value was “F”. Moreover, the “Challenge test result E.c.” value with Escherichia coli (E.c.) (concentration 0.5%, pH 7) is given as “F”. Also, the “Challenge test result P.a.” value in test [2] (concentration 0.5%) was “F”. Further, the “Challenge test result S.a.” value in test [3] (concentration 0.5%) is “B”. Besides, the “Ability to preserve the formulation” value in test [4] (alone, entries 8-11 (0.5%; Velsan CGE 0.5% and 0.25%)) is “not sufficient to preserve the formulation”.
